For 36 compounds, class results are on record in US20050197350A1, “Novel quinoline, tetrahydroquinazoline, and pyrimidine derivatives and methods of treatment related to the use thereof” (TAISHO PHARMACEUTICAL CO., LTD., priority 2003, published 2005).

In this assay the test system is MCH receptors. Nature of the assay: MCH receptor activity class (method not given).
[1] abbreviates: class 1-3 by percent of control at 10^-7 M or IC50.
The mark [2] stands for this setting: class by percent of control at 10^-7 M or IC50.
Where [3] appears, read: class by percent of control at 10^−7 M or IC50.
Setting [4] is: MCH receptor, class by percent of control at 10^-7 M or IC50.
[5] abbreviates: activity class per percent of control at 10^-7 M or IC50.
Setting [6] is: MCH receptor activity class 1-3 (percent of control at 10^-7 M or IC50).

Turning to `CN(C)c1nc(N[C@H]2CC[C@@H](CNC(=O)c3ccc(Cl)cc3)CC2)nc2c1CCCC2` [compound 587], the class under setting [1] is 3 (Class 3 The value of percent of control at 10^−7 M was more than 60% or the value of IC50 was more than 200 nM.).

For `Cc1onc(-c2ccccc2)c1NC(=O)N[C@H]1CC[C@@H](Nc2nccc(N(C)C)n2)CC1` [compound 2256], the class under setting [2] is on record as 3 (Class 3 The value of percent of control at 10^−7 M was more than 60% or the value of IC50 was more than 200 nM.).

For `CN(C)c1cc(N[C@H]2CC[C@@H](NC(=S)Nc3ccc(Br)cc3C(F)(F)F)CC2)nc2ccccc12` [compound 2285], the class under setting [2] is 2 (Class 2: The value of percent of control at 10^−7 M was from 40% to 60% or the value of IC′50 was from 50 nM to 200 nM.).

On to `Cc1cc(N(C)C)nc(N[C@H]2CC[C@@H](CNC(=O)c3ccc(C(F)(F)F)c(F)c3)CC2)n1` [compound 2765], for which the class under setting [3] is recorded as 2 (Class 2: The value of percent of control at 10^−7 M was from 40% to 60% or the value of IC′50 was from 50 nM to 200 nM.).

As to `COc1cc([N+](=O)[O-])ccc1NC(=S)N[C@H]1CC[C@@H](Nc2cc(N(C)C)c3ccccc3n2)CC1` [compound 2269], the class under setting [2] is 3 (Class 3 The value of percent of control at 10^−7 M was more than 60% or the value of IC50 was more than 200 nM.).

With `CN(C)c1nc(N[C@H]2CC[C@@H](NC(=S)Nc3cc(C(F)(F)F)ccc3Cl)CC2)nc2c1CCCC2` [compound 2003], the class under setting [4] is 3 (Class 3 The value of percent of control at 10^−7 M was more than 60% or the value of IC50 was more than 200 nM.).

As to `Cc1cc(N(C)C)nc(N[C@H]2CC[C@@H](C(=O)N[C@H](C)c3ccc(Cl)cc3)CC2)n1` [compound 2805, cis-N-[(1R)-1-(4-chlorophenyl)ethyl]-4-{[4-(dimethylamino)-6-methylpyrimidin-2-yl]amino}cyclohexanecarboxamide], the class under setting [3] is given as 1 (Class 1: The value of percent of control at 10^−7 M was less than 40% or the value of IC50 was less than 50 nM.).

With `CN(C)c1nc(N[C@H]2CC[C@@H](NC(=O)Nc3cccs3)CC2)nc2c1CCCC2` [compound 1916], under setting [4], the class is recorded as 3 (Class 3 The value of percent of control at 10^−7 M was more than 60% or the value of IC50 was more than 200 nM.).

For the compound `CN(C)c1ccnc(N[C@H]2CC[C@@H](NC(=O)Cc3cccc(Oc4ccccc4)c3)CC2)n1` [compound 867], the class under setting [2] was 3 (Class 3 The value of percent of control at 10^−7 M was more than 60% or the value of IC50 was more than 200 nM.).

Turning to `CN(C)c1ccnc(N[C@H]2CC[C@@H](NC(=O)c3cccc(Cl)c3F)CC2)n1` [compound 277], under setting [2], the class is 3 (Class 3 The value of percent of control at 10^−7 M was more than 60% or the value of IC50 was more than 200 nM.).

Consider `CN(C)c1ccnc(N[C@H]2CC[C@@H](CNC(=O)c3cccc(OC(F)(F)F)c3)CC2)n1` [compound 399], for which the class under setting [2] was 3 (Class 3 The value of percent of control at 10^−7 M was more than 60% or the value of IC50 was more than 200 nM.).

In the case of `CCCN(CCC)C(=O)[C@H](CCC(=O)N[C@H]1CC[C@@H](Nc2nc3c(c(N(C)C)n2)CCCC3)CC1)NC(=O)c1ccccc1` (relative stereo) [compound 1006], the class under setting [5] is recorded as 1 (Class 1: The value of percent of control at 10^−7 M was less than 40% or the value of IC50 was less than 50 nM.).

For the compound `CN(C)c1ccnc(N[C@H]2CC[C@@H](NC(=O)c3cccc(OC(F)(F)F)c3)CC2)n1` [compound 272, N-(cis-4-{[4-(dimethylamino)pyrimidin-2-yl]amino}cyclohexyl)-3-(trifluoromethoxy)benzamide], the class under setting [2] was 1 (Class 1: The value of percent of control at 10^−7 M was less than 40% or the value of IC50 was less than 50 nM.).

As to `CN(C)c1ccnc(N[C@H]2CC[C@@H](NC(=O)c3ccc(-c4ccc(Cl)cc4[N+](=O)[O-])o3)CC2)n1` [compound 815, 5-(4-chloro-2-nitrophenyl)-N-(cis-4-{[4-(dimethylamino)pyrimidin-2-yl]amino}cyclohexyl)-2-furamide], the class under setting [2] is on record as 1 (Class 1: The value of percent of control at 10^−7 M was less than 40% or the value of IC50 was less than 50 nM.).

Consider `CN(C)c1ccnc(N[C@H]2CC[C@@H](NC(=O)c3ccc(I)cc3)CC2)n1` [compound 259], for which the class under setting [2] is on record as 3 (Class 3 The value of percent of control at 10^−7 M was more than 60% or the value of IC50 was more than 200 nM.).

For the compound `C=C(C)CNC(=S)N[C@H]1CC[C@@H](Nc2nc3c(c(N(C)C)n2)CCCC3)CC1` [compound 1950], under setting [4], the class was 3 (Class 3 The value of percent of control at 10^−7 M was more than 60% or the value of IC50 was more than 200 nM.).

For `CN(C)c1nc(N[C@H]2CC[C@@H](NC(=O)NCCc3cccs3)CC2)nc2c1CCCC2` [compound 1914], the class under setting [4] is recorded as 3 (Class 3 The value of percent of control at 10^−7 M was more than 60% or the value of IC50 was more than 200 nM.).

As to `CN(C)c1nc(N[C@H]2CC[C@@H](NC(=O)c3cc(Cl)ccc3O)CC2)nc2c1CCCC2` [compound 1055], under setting [5], the class is reported as 1 (Class 1: The value of percent of control at 10^−7 M was less than 40% or the value of IC50 was less than 50 nM.).

With `Cc1ccc(-c2ccc(C(=O)NC[C@H]3CC[C@@H](Nc4cc(N(C)C)c5ccccc5n4)CC3)o2)c([N+](=O)[O-])c1` [compound 801], the class under setting [2] is 3 (Class 3 The value of percent of control at 10^−7 M was more than 60% or the value of IC50 was more than 200 nM.).

As to `COc1ccc(CNC[C@H]2CC[C@@H](Nc3cc(N(C)C)c4ccccc4n3)CC2)cc1OC` [compound 1193], the class under setting [2] was 3 (Class 3 The value of percent of control at 10^−7 M was more than 60% or the value of IC50 was more than 200 nM.).

On to `CC(C)Oc1ccc(CNC[C@H]2CC[C@@H](Nc3cc(N(C)C)c4ccccc4n3)CC2)cc1` [compound 1156], for which, under setting [2], the class was 3 (Class 3 The value of percent of control at 10^−7 M was more than 60% or the value of IC50 was more than 200 nM.).

As for `CN(C)c1ccnc(N[C@H]2CC[C@@H](CNC(=O)Nc3c(Cl)cccc3C(F)(F)F)CC2)n1` [compound 2419], the class under setting [6] is given as 1 (Class 1: The value of percent of control at 10^−7 M was less than 40% or the value of IC50 was less than 50 nM.).

For `CN(C)c1nc(N[C@H]2CC[C@@H](CNCCCOc3ccccc3)CC2)nc2c1CCCC2` [compound 1505], the class under setting [2] is recorded as 3 (Class 3 The value of percent of control at 10^−7 M was more than 60% or the value of IC50 was more than 200 nM.).

For the compound `CN(C)c1ccnc(N[C@H]2CC[C@@H](NC(=O)c3cc(Cl)cc(Cl)c3NC(=O)C#Cc3ccccc3)CC2)n1` [compound 858], the class under setting [2] is on record as 2 (Class 2: The value of percent of control at 10^−7 M was from 40% to 60% or the value of IC′50 was from 50 nM to 200 nM.).

Turning to `Cc1cccc(C(C)C)c1NC(=O)NC[C@H]1CC[C@@H](Nc2nccc(N(C)C)n2)CC1` [compound 2425], the class under setting [6] is reported as 1 (Class 1: The value of percent of control at 10^−7 M was less than 40% or the value of IC50 was less than 50 nM.).

For `Cc1cnc(N[C@H]2CC[C@@H](CNC(=O)c3ccc(-c4ccccc4)cc3)CC2)nc1N(C)C` [compound 2709], the class under setting [3] is 3 (Class 3 The value of percent of control at 10^−7 M was more than 60% or the value of IC50 was more than 200 nM.).

For the compound `COc1ccc(CNC[C@H]2CC[C@@H](Nc3nc4c(c(N(C)C)n3)CCCC4)CC2)cc1C` [compound 1432], under setting [2], the class is on record as 3 (Class 3 The value of percent of control at 10^−7 M was more than 60% or the value of IC50 was more than 200 nM.).

In the case of `CN(C)c1ccnc(N[C@H]2CC[C@@H](NC(=O)c3cc(C(F)(F)F)cc(C(F)(F)F)c3)CC2)n1` [compound 296, N-(cis-4-{[4-(dimethylamino)pyrimidin-2-yl]amino}cyclohexyl)-3,5-bis(trifluoromethyl)benzamide], under setting [2], the class is 1 (Class 1: The value of percent of control at 10^−7 M was less than 40% or the value of IC50 was less than 50 nM.).

For the compound `Cc1cccc(C(C)C)c1NC(=S)N[C@H]1CC[C@@H](Nc2nccc(N(C)C)n2)CC1` [compound 2348], the class under setting [6] is 3 (Class 3 The value of percent of control at 10^−7 M was more than 60% or the value of IC50 was more than 200 nM.).

Turning to `CN(C)c1nc(N[C@H]2CC[C@@H](CNC(=O)Cc3cccc4ccccc34)CC2)nc2c1CCCC2` [compound 651], under setting [2], the class is reported as 3 (Class 3 The value of percent of control at 10^−7 M was more than 60% or the value of IC50 was more than 200 nM.).

Consider `COc1ccc(C(=O)NC[C@H]2CC[C@@H](Nc3nc(C)cc(N(C)C)n3)CC2)cc1` [compound 2754], for which, under setting [3], the class is listed as 3 (Class 3 The value of percent of control at 10^−7 M was more than 60% or the value of IC50 was more than 200 nM.).

On to `CN(C)c1cc(N[C@H]2CC[C@@H](NC(=O)Nc3c(F)cc(Br)cc3F)CC2)nc2ccccc12` [compound 2116], for which the class under setting [2] was 3 (Class 3 The value of percent of control at 10^−7 M was more than 60% or the value of IC50 was more than 200 nM.).

As for `CN(C)c1ccnc(N[C@H]2CC[C@@H](NCCc3cccc(Cl)c3)CC2)n1` [compound 1514], the class (activity class 1-3: percent of control at 10^-7 M or IC50) is 3 (Class 3 The value of percent of control at 10^−7 M was more than 60% or the value of IC50 was more than 200 nM.).

Consider `Cc1cccc(Cl)c1NC(=O)NC[C@H]1CC[C@@H](Nc2nc3c(c(N(C)C)n2)CCCC3)CC1` [compound 2466, N-(2-chloro-6-methylphenyl)-N′-[(cis-4-{[4-(dimethylamino)-5,6,7,8-tetrahydroquinazolin-2-yl]amino}cyclohexyl)methyl]urea], for which the class under setting [6] was 1 (Class 1: The value of percent of control at 10^−7 M was less than 40% or the value of IC50 was less than 50 nM.).

Turning to `CN(C)c1nc(N[C@H]2CC[C@@H](NC(=O)c3ccc(F)cc3Cl)CC2)nc2c1CCCC2` [compound 497], under setting [1], the class is on record as 2 (Class 2: The value of percent of control at 10^−7 M was from 40% to 60% or the value of IC′50 was from 50 nM to 200 nM.).

Turning to `CN(C)c1cc(N[C@H]2CC[C@@H](NC(=O)COc3cccc(Cl)c3)CC2)nc2ccccc12` [compound 133], the class under setting [4] is 1 (Class 1: The value of percent of control at 10^−7 M was less than 40% or the value of IC50 was less than 50 nM.).
